Drawing on ChEMBL document CHEMBL3992485 (Medchemcomm, 2016), this text covers IC50, CC50 and inhibition for 25 compounds.

Activity calls are given as the source filed them. No cut-off for these calls is given here.

Data set [1] in a line: Inhibition of tubulin polymerization in bovine brain assessed as reduction in tubulin assembly after 20 mins by spectrophotometric method. Further details: species or system Bos taurus.
Data set [2] concerns HeLa. Nature of the data set: Antiproliferative activity against human HeLa cells measured after 24 hrs by MTT assay. The data set is classed as functional, cell-based. (Formazan colour is commonly taken as a measure of viable cells.)
For a further data set, the system named is A549. Nature of the data set: Antiproliferative activity against human A549 cells measured after 24 hrs by MTT assay. The following applies: A549, 24 h. The data set is classed as functional, cell-based.
A short description of data set [3]: Antiproliferative activity against human 293T cells measured after 24 hrs by MTT assay. Format: cell-based. As to conditions: 293T (HEK-293T) cells.
The test system of the next data set is MCF7. Nature of the data set: Antiproliferative activity against human MCF7 cells measured after 24 hrs by MTT assay. The data set is classed as functional, cell-based. The following applies: MCF7, 24 h.
The test system of another data set is HepG2. Nature of the data set: Antiproliferative activity against human HepG2 cells measured after 24 hrs by MTT assay. Format: functional, cell-based. The following applies: HepG2, 24 h.
For data set [4], the system named is HeLa. Nature of the data set: Inhibition of microtubule polymerization in human HeLa cells at 0.2 uM after 24 hrs by DAPI staining based confocal microscopic analysis. Format: cell-based.

What is called IC50 is the concentration at which inhibition is half-maximal. By CC50 is commonly meant the concentration at which the toxic effect on the cells reaches its halfway point. Turning to `O=C(c1cn(Cc2ccccc2)c2ccccc12)N1CCN(S(=O)(=O)c2ccc(Cl)cc2)CC1`, the IC50 in data set [1] was 6.01 µM; in the data set with HeLa [2], above 100 µM; in the data set on A549 it was 54.8 µM; in the data set with MCF7, 46.6 µM; in the data set on HepG2, above 100 µM. The compound also gave a half-maximal cytotoxic concentration (CC50) at 24 h in data set [3] of 472 µM.
With `CCCn1cc(C(=O)N2CCN(S(=O)(=O)c3ccc(C)cc3)CC2)c2ccccc21`, the half-inhibitory concentration (IC50) in data set [1] amounted to 3.15 µM; in the data set with HeLa [2], 10.7 µM; in the data set with A549, 14.7 µM; with MCF7, 16.8 µM; in the data set with HepG2, 24.9 µM. This compound displayed a CC50 at 24 h in data set [3] of 357 µM.
Turning to `O=C(c1cn(Cc2ccccc2)c2ccccc12)N1CCN(S(=O)(=O)c2ccccc2)CC1`, the half-maximal inhibitory concentration (IC50) was found to be 5.64 µM in data set [1]; 21.1 µM with HeLa [2]; 22.4 µM with A549; 35.6 µM in the data set on MCF7; 27.9 µM with HepG2. Moreover, in data set [3], the cytotoxic concentration (CC50) at 24 h was determined as 262 µM.
`CC(=O)O[C@H]1C(=O)[C@@]2(C)[C@H]([C@H](OC(=O)c3ccccc3)[C@]3(O)C[C@H](OC(=O)[C@H](O)[C@@H](NC(=O)c4ccccc4)c4ccccc4)C(C)=C1C3(C)C)[C@]1(OC(C)=O)CO[C@@H]1C[C@@H]2O`: in the data set with HeLa [4], the inhibition entry is “inactive”.
With `COc1cc2c(c(OC)c1OC)-c1ccc(OC)c(=O)cc1[C@@H](NC(C)=O)CC2` [COLCHICINE], in the data set with HeLa [4], the inhibition result was “Active”. Also, the IC50 with HeLa [2] came out at 0.45 µM; in the data set on A549, 0.47 µM; with MCF7, 0.54 µM; with HepG2 it was 0.64 µM. Moreover, it took 152 µM to reach half-maximal cytotoxicity in data set [3] (CC50 at 24 h).
Take `CCCn1cc(C(=O)N2CCN(S(=O)(=O)c3ccc([N+](=O)[O-])cc3)CC2)c2ccccc21`: the IC50 is 44.8 µM in data set [1]; above 100 µM in the data set with HeLa [2]; above 100 µM in the data set with A549; above 100 µM in the data set on MCF7; above 100 µM in the data set with HepG2. The same compound displayed a 50% cytotoxic concentration (CC50) at 24 h in data set [3] of 464 µM.
With `Cn1cc(C(=O)N2CCN(S(=O)(=O)c3ccc(Cl)cc3)CC2)c2ccccc21`, the half-inhibitory concentration (IC50) in data set [1] was found to be 3.34 µM; with HeLa [2] it was 11.7 µM; with A549 it was 25.3 µM; in the data set with MCF7, 29.5 µM; with HepG2, 16.3 µM. The same compound came in with a CC50 at 24 h in data set [3] of 257 µM.
Regarding `Cn1cc(C(=O)N2CCN(S(=O)(=O)c3ccccc3)CC2)c2ccccc21`, the concentration for half-maximal inhibition (IC50) was found to be 2.76 µM in data set [1]; 7.76 µM in the data set with HeLa [2]; 15.5 µM in the data set on A549; 9.43 µM with MCF7; 4.54 µM with HepG2. In data set [3], the half-maximal cytotoxic concentration (CC50) at 24 h came to 314 µM.
On to `CCn1cc(C(=O)N2CCN(S(=O)(=O)c3ccc(C)cc3)CC2)c2ccccc21`, for which the 50% inhibitory concentration (IC50) in data set [1] came out at 3.75 µM; with HeLa [2], 12.8 µM; in the data set on A549, 24.7 µM; in the data set on MCF7 it was 24.6 µM; in the data set with HepG2, 7.45 µM. In data set [3], this compound registered a CC50 at 24 h of 298 µM.
On to `Cn1cc(C(=O)N2CCN(S(=O)(=O)c3ccc(Br)cc3)CC2)c2ccccc21`, for which the IC50 in data set [1] turned out to be 3.96 µM; in the data set on HeLa [2], 9.86 µM; with A549, 6.49 µM; with MCF7, 17.3 µM; in the data set on HepG2, 5.79 µM. Half-maximal cytotoxicity in data set [3] (CC50 at 24 h) was put at 295 µM.
On to `CCn1cc(C(=O)N2CCN(S(=O)(=O)c3ccccc3)CC2)c2ccccc21`, for which the half-inhibitory concentration (IC50) is 3.75 µM in data set [1]; 15.8 µM in the data set with HeLa [2]; above 100 µM in the data set on A549; 22.7 µM in the data set with MCF7; 14.8 µM in the data set on HepG2. The compound also registered a CC50 at 24 h in data set [3] of 366 µM.
Regarding `CC(C)c1cc(C(C)C)c(S(=O)(=O)N2CCN(C(=O)c3cn(C)c4ccccc34)CC2)c(C(C)C)c1`, the IC50 worked out at 1.97 µM in data set [1]; 0.37 µM with HeLa [2]; 0.94 µM in the data set on A549; 0.63 µM with MCF7; 0.45 µM in the data set on HepG2. In data set [3], this compound came in with a half-maximal cytotoxic concentration (CC50) at 24 h of 383 µM.
Take `Cn1cc(C(=O)N2CCN(S(=O)(=O)c3ccc([N+](=O)[O-])cc3)CC2)c2ccccc21`: the concentration for half-maximal inhibition (IC50) in data set [1] stood at 3.56 µM; with HeLa [2], 15.6 µM; with A549, 44.6 µM; in the data set with MCF7 it was 32.6 µM; with HepG2, 28 µM. The CC50 at 24 h in data set [3] came out at 374 µM.
With `CCCn1cc(C(=O)N2CCN(S(=O)(=O)c3ccc(Cl)cc3)CC2)c2ccccc21`, the IC50 was 45.4 µM in data set [1]; above 100 µM in the data set on HeLa [2]; above 100 µM in the data set on A549; above 100 µM with MCF7; 50.6 µM in the data set on HepG2. In data set [3], this compound yielded a CC50 at 24 h of 537 µM.
As for `CCCn1cc(C(=O)N2CCN(S(=O)(=O)c3ccccc3)CC2)c2ccccc21`, the concentration for half-maximal inhibition (IC50) in data set [1] is 48.9 µM; in the data set on HeLa [2], above 100 µM; in the data set with A549, 23.6 µM; with MCF7 it was 23.6 µM; in the data set on HepG2, 29.7 µM. This compound also had a CC50 at 24 h in data set [3] of 485 µM.
`Cc1ccc(S(=O)(=O)N2CCN(C(=O)c3cn(Cc4ccccc4)c4ccccc34)CC2)cc1`: the IC50 in data set [1] is 3.02 µM; in the data set with HeLa [2], 10 µM; with A549, 17 µM; in the data set on MCF7 it was 18.7 µM; in the data set on HepG2, 33.2 µM. The 50% cytotoxic concentration (CC50) at 24 h in data set [3] came to 321 µM.
As to `CCn1cc(C(=O)N2CCN(S(=O)(=O)c3ccc([N+](=O)[O-])cc3)CC2)c2ccccc21`, the concentration for half-maximal inhibition (IC50) in data set [1] was determined as 5.52 µM; in the data set with HeLa [2], 48 µM; in the data set on A549, 63.5 µM; with MCF7, 50.9 µM; with HepG2 it was 69.3 µM. Also, the CC50 at 24 h in data set [3] was found to be 436 µM.
Regarding `CCCn1cc(C(=O)N2CCN(S(=O)(=O)c3ccc(Br)cc3)CC2)c2ccccc21`, the half-inhibitory concentration (IC50) in data set [1] was found to be 27.5 µM; with HeLa [2] it was 27.5 µM; with A549 it was 39.8 µM; in the data set with MCF7 it was 64.8 µM; in the data set on HepG2, 44.9 µM. Besides, the CC50 at 24 h in data set [3] was 463 µM.
In the case of `CCCn1cc(C(=O)N2CCN(S(=O)(=O)c3c(C(C)C)cc(C(C)C)cc3C(C)C)CC2)c2ccccc21`, the half-inhibitory concentration (IC50) in data set [1] came out at 2.87 µM; with HeLa [2] it was 14.9 µM; with A549, 17.5 µM; with MCF7, 11.6 µM; with HepG2 it was 16.8 µM. The compound also showed a CC50 at 24 h in data set [3] of 311 µM.
As to `CC(C)c1cc(C(C)C)c(S(=O)(=O)N2CCN(C(=O)c3cn(Cc4ccccc4)c4ccccc34)CC2)c(C(C)C)c1`, the concentration for half-maximal inhibition (IC50) in data set [1] is 3.64 µM; in the data set with HeLa [2], 18.3 µM; in the data set on A549 it was 10.7 µM; in the data set on MCF7, 14.1 µM; in the data set with HepG2 it was 17.6 µM. The same compound displayed a half-maximal cytotoxic concentration (CC50) at 24 h in data set [3] of 295 µM.
Consider `O=C(c1cn(Cc2ccccc2)c2ccccc12)N1CCN(S(=O)(=O)c2ccc(Br)cc2)CC1`, for which the 50% inhibitory concentration (IC50) in data set [1] was 6.74 µM; in the data set on HeLa [2] it was 35.6 µM; with A549 it was above 100 µM; in the data set with MCF7 it was 37.8 µM; with HepG2 it was 38.6 µM. Also, the CC50 at 24 h in data set [3] amounted to 326 µM.
Turning to `O=C(c1cn(Cc2ccccc2)c2ccccc12)N1CCN(S(=O)(=O)c2ccc([N+](=O)[O-])cc2)CC1`, the IC50 is 6.84 µM in data set [1]; 42.9 µM in the data set with HeLa [2]; above 100 µM with A549; 50.6 µM with MCF7; above 100 µM in the data set with HepG2. The compound also showed a CC50 at 24 h in data set [3] of 347 µM.
On to `Cc1ccc(S(=O)(=O)N2CCN(C(=O)c3cn(C)c4ccccc34)CC2)cc1`, for which the IC50 was determined as 2.15 µM in data set [1]; 3.65 µM in the data set on HeLa [2]; 7.43 µM in the data set with A549; 6.53 µM with MCF7; 1.83 µM in the data set with HepG2. The compound also displayed a 50% cytotoxic concentration (CC50) at 24 h in data set [3] of 353 µM.
Turning to `CCn1cc(C(=O)N2CCN(S(=O)(=O)c3ccc(Cl)cc3)CC2)c2ccccc21`, the half-maximal inhibitory concentration (IC50) is 44.9 µM in data set [1]; above 100 µM in the data set with HeLa [2]; above 100 µM in the data set with A549; 46.6 µM in the data set on MCF7; 36.8 µM in the data set on HepG2. The compound also returned a CC50 at 24 h in data set [3] of 275 µM.
With `CCn1cc(C(=O)N2CCN(S(=O)(=O)c3ccc(Br)cc3)CC2)c2ccccc21`, the IC50 in data set [1] was found to be 4.87 µM; in the data set on HeLa [2] it was 32.9 µM; in the data set with A549, 48.4 µM; with MCF7, 27.6 µM; in the data set with HepG2, 26.6 µM. Moreover, the cytotoxic concentration (CC50) at 24 h in data set [3] stood at 354 µM.
